We go through one compound from US9351941B2, “Radiofrequency-induced synchronization of in situ hyperthermia and chemotherapy via magnetic-nanoconjugates” (National Cheng Kung University, priority 2012, dated 2016).

This test relates to tumor. Description: targeting hyperthermia and chemotherapy through tail vein injection with RF treatment (FIG. 8). The class given is in vivo, C3H/HeN mice. The following applies: 5-FU injection alone, 770 nM, equivalent to total nanoparticle loaded drugs. The procedure:
In addition, in an embodiment according to the present invention, targeting hyperthermia and chemotherapy through tail vein injection of the 5-FU-loaded Fe3O4@anti-HER2 nanoparticle (500 μg/mL) in a serial single daily dose for four consecutive days are evaluated. RF treatments are given 24 h after the nanoparticle had been injected. […] This indicates nanoparticle accumulation within tumor dissipate sufficient heat to generate hyperthermia effect.
Groups of male C3H/HeN mice 6-8 weeks old in this experiment were given a tail-vein injection of 200 μL 5-FU-loaded Fe3O4@anti-HER2 magnetic nanoparticle in PBS ([…]) or of PBS alone. One group of mice was sacrificed 24 h after the tail-vein injection. The rest of the mice were given 15 min RF treatment 24 h after the tail-vein injection. Twenty-four hours after the RF treatment, the mice were overdosed with the anesthetics ketamine and xylazine (8.7 mg/100 g and 1.3 mg/100 g), and their major organs (brain, heart, lungs, spleen, liver, kidneys) and blood were collected. Each organ was homogenized and dissolved in nitro-hydrochloric acid. The sample solutions were continuously shaken for two days to ensure Fe dissociation. All samples were filtered before analyzed using atomic absorption spectrometer (Solar M6 series; Unicam, UK). […]

Regarding `O=c1[nH]cc(F)c(=O)[nH]1` [5-FU, 5-fluorouracil], the tumor growth result is “unable to suppress tumor growth”.
